The test system of series [1] is pig tracheal smooth muscles. Put plainly: Dilating action on contraction of tracheal smooth muscles (high K+ contraction, Magnus tube). Conditions: Sus scrofa, 2 h; K+ contraction (72.7 mM); test substance final concentration 10 μM; two hours after addition; tension before addition = 100%; read-out: Relative Contraction Force (%). The text has this:
With the use of pig tracheal muscles, the action of the compounds of the present invention on contraction of tracheal muscles has been investigated. The method refers to “Smooth Muscle Manual” (published by Bun'eido Publishing Co.), pp. 125-137. The trachea cartilage mucous membrane and submucous tissue of a pig trachea were removed to prepare a specimen of tracheal smooth muscles having a major diameter of about 10 mm and a minor diameter of about 1.5 mm. This specimen was suspended in a Magnus tube which was aerated with a mixed gas of 95% of oxygen and 5% of carbon dioxide and contained nutrient solution at 37° C. and a load of 0.8 g was applied to this specimen, and after the tension of the specimen was stabilized, the nutrient solution was replaced with a high concentration K^+ solution (72.7 mM) to provoke K^+ contraction. The procedure of replacing the solution in the Magnus tube with the nutrient solution to wash the solution and provoking K^+ contraction with the high concentration K^+ solution was repeated again until the contraction force became constant. When the tension of the K^+ contraction became constant, each of the compounds described in Table 19 (the structural formula of the Comparative Example being described in the right side of the compound of the above described Example 180) was added to the high concentration K^+ solution as the test substance to measure the change in tension. The test substance was dissolved in dimethyl sulfoxide at a predetermined concentration and added to the high concentration K^+ solution in such a manner that the final concentration came to 10 μM. The trachea cartilage mucous membrane and submucous tissue of a pig trachea were removed to prepare a specimen of tracheal smooth muscles having a major diameter of about 10 mm and a minor diameter of about 1.5 mm. This specimen was suspended in a Magnus tube which was aerated with a mixed gas of 95% of oxygen and 5% of carbon dioxide and contained nutrient solution at 37° C. and a load of 0.8 g was applied to this specimen, and after the tension of the specimen was stabilized, the nutrient solution was replaced with a high concentration K+ solution (72.7 mM) to provoke K+ contraction. The procedure of replacing the solution in the Magnus tube with the nutrient solution to wash the solution and provoking K+ contraction with the high concentration K+ solution was repeated again until the contraction force became constant. When the tension of the K+ contraction became constant, each of the compounds described in Table 19 (the structural formula of the Comparative Example being described in the right side of the compound of the above described Example 180) was added to the high concentration K+ solution as the test substance to measure the change in tension. The test substance was dissolved in dimethyl sulfoxide at a predetermined concentration and added to the high concentration K+ solution in such a manner that the final concentration came to […]. Further, the final concentration of dimethyl sulfoxide added was made 0.3% or less. The change in tension was led to a strain pressure amplifier (“AP-621G3”, manufactured by Nippon Koden Kogyo) through a FD pickup transducer (“TB-611T”, manufactured by Nippon Koden Kogyo) and recorded on a recorder (“R-64V”, manufactured by Rika Electric). When the tension before replacement with the high concentration K+ solution was regarded as 0% and the last tension which was generated by the high concentration K+ solution before the addition of a test substance was regarded as 100%, the contraction force of the tracheal smooth muscle two hours after addition of a test substance was shown as relative percentage. […]

The test system of a further series is Sprague-Dawley line rats. Put plainly: Toxicity study of two-week repeated-dose oral administration with rats. The series is classed as in vivo. Conditions: male, oral, 0, 125 and 500 mg/kg/day repeatedly for two weeks. The method, then: In order to study the toxicity by repeated-dose administration of compounds, the compounds were dosed orally to Sprague-Dawley line rats (three male rats per group) with 0, 125 and 500 mg/kg/day (a 0.5 w/v % CMC-Na solution) repeatedly for two weeks.

In general, melting point refers to the temperature of the solid-liquid transition.

As to `CC1C(=O)c2cc(O)c(O)cc2Sc2ccccc21` (centres unmarked) [Example 37], the activity at 10 µM in series [1] came out at 7.5%.

`Oc1cc(O)c2c(c1)Sc1cc(-c3ccco3)ccc1CC2` [Example 124]: the melting point lay within 148.5 to 149.6 °C. In addition, the activity at 10 µM in series [1] was 30.3%.

On to `Oc1cc(O)c2c(c1)Oc1cc(-c3cccs3)ccc1CC2` [Example 110], for which the melting point lay in the range of 194.2 to 195.6 °C. Besides, the activity at 10 µM in series [1] amounted to 10.9%.

Turning to `Oc1cc(O)c2c(c1)Sc1cccc(Cl)c1CC2` [Example 27], the melting point fell in the range of 127.3 to 130.7 °C. Besides, the activity at 10 µM in series [1] was 1.4%.

For `Oc1cc(O)c2c(c1)Sc1ccccc1CC2` [Comparative Example, reference compound], the activity at 10 µM in series [1] was found to be 54.5%. In addition, in the series with Sprague-Dawley line rats, the “Results (toxicity findings)” value is “Kidney damage were observed with”.

On to `O=C1Cc2ccc(-c3ccco3)cc2Sc2cc(O)cc(O)c21` [Example 82], for which the melting point lay within 234.9 to 238.8 °C. In series [1], the activity at 10 µM stood at 22.4%.

Compound `Oc1cc(O)c2c(c1)Oc1cc(-c3cccc(C(F)(F)F)c3)ccc1CC2` [Example 117] displayed a melting point of 150.2 to 152.6 °C.

Consider `Oc1cc(O)c2c(c1)Sc1ccc(-c3cccs3)cc1CC2` [Example 126], for which the melting point is 207.3 to 208.1 °C.

Take `CCC1C(=O)c2cc(O)c(O)cc2Sc2ccc(-c3ccccc3)cc21` (centres unmarked) [Example 163]: the melting point lay within 225.7 to 227.3 °C.

`CCCC(=O)c1ccc2c(c1)CCc1c(O)cc(O)cc1S2` [Example 129] yielded a melting point of 151.8 to 152.8 °C.

In the case of `Cc1ccccc1-c1ccc2c(c1)CC(=O)c1c(O)cc(O)cc1O2` [Example 62], the melting point was 91.8 to 94.8 °C.

The compound `C[Si](C)(C)CCc1ccc2c(c1)CCc1c(O)cc(O)cc1O2` showed a melting point of 125.2 to 126.9 °C.

`O=C1Cc2c(Cl)cccc2Sc2cc(O)cc(O)c21` [Example 17]: the melting point is > 200 °C (dec.). Further, the activity at 10 µM in series [1] was determined as 0%.

For the compound `CCC1C(=O)c2cc(O)c(O)cc2Sc2cc(-c3cccs3)ccc21` (centres unmarked) [Example 155], the melting point fell in the range of 270.3 to 271.9 °C.

As for `CSc1ccc2c(c1)CCc1c(O)cc(O)cc1S2` [Example 2, 8-Methylthio-10,11-dihydrodibenzo[b,f]thiepin-1,3-diol], the melting point is 161.6 to 163.9 °C.

The compound `Oc1cc(O)c2c(c1)Oc1ccc(-c3ccco3)cc1CC2` [Example 114] gave a melting point of 163.6 to 173.9 °C.

As to `CCC1C(=O)c2cc(O)c(O)cc2Sc2cc(-c3cc4ccccc4o3)ccc21` (centres unmarked) [Example 168], the melting point was 293.2 °C (dec.).

Take `O=C1c2c(O)cc(O)cc2Sc2ccccc2C1Cc1ccccc1` (centres unmarked) [Example 40]: the melting point is 67.5 to 68.3 °C.

In the case of `CSc1ccc2c(c1)C=Cc1c(O)cc(O)cc1S2` [Example 28], the melting point lay within 182.9 to 184.4 °C.

`O=C1Cc2cc(-c3ccc(O)cc3O)ccc2Oc2cc(O)cc(O)c21` [Example 77] had a melting point of 212.6 to 215.7 °C.

As to `O=C1Cc2cc(-c3ccco3)ccc2Sc2cc(O)cc(O)c21` [Example 84], the melting point is 243.5 to 248.4 °C (dec.).

The compound `CCC1C(=O)c2cc(O)c(O)cc2Sc2ccc(-c3cccs3)cc21` (centres unmarked) [Example 162] gave a melting point of 225.7 to 227.4 °C.

As for `CC(=O)c1ccc(-c2ccc3c(c2)CC(=O)c2c(O)cc(O)cc2O3)cc1` [Example 65], the melting point was 274 to 279 °C (dec.).

`O=C(Cc1ccc2c(c1)Oc1cc(O)cc(O)c1C(=O)C2)C1=CCCCC1` [Example 68] showed a melting point of 195.5 to 195.8 °C.

Compound `CCC1C(=O)c2cc(O)c(O)cc2Sc2cc(SC)ccc21` (centres unmarked) [Example 46] showed a melting point of 179.8 to 183 °C.

Compound `Cc1ccccc1-c1ccc2c(c1)Oc1cc(O)cc(O)c1C(=O)C2` [Example 72] came in with a melting point of 163.5 to 165.8 °C.

In turn, `CCC1C(=O)c2cc(O)c(O)cc2Sc2cc(-c3ccccc3C)ccc21` (centres unmarked) [Example 158] returned a melting point of 179.2 to 181.1 °C.

As to `O=C1Cc2cc(-c3ccc(-c4ccccc4)cc3)ccc2Oc2cc(O)cc(O)c21` [Example 79], the melting point was > 250 °C (dec.).

Consider `O=C1Cc2ccc(-c3ccc(O)c(O)c3)cc2Oc2cc(O)cc(O)c21` [Example 98], for which the melting point was 229.8 to 231.6 °C.

The values are drawn from patent US6700013B2, “Tricyclic fused heterocycle compounds, process for preparing the same and use thereof” (Nippon Suisan Kaisha, Ltd., priority 1999, dated 2004).
